pIC50: −log10 of the molar value. Read-outs that look alike come from different tables or passages of the source.
Experiments:
Format in all cases: cell-based, human
IGROV1 (EOC) = experiment: proliferation assay, IGROV1 epithelial ovarian cancer cells; settings: folate-/glycine-free RPMI1640 with 25 nM leucovorin, read-out: IC50s (SE) IGROV1 (EOC)
Protocol: (§1) Proliferation assays were performed with engineered Chinese hamster ovary (CHO) cell lines R2 (transporter-null), PC43-10 (expresses RFC only), RT16 (FRα only), and R2/PCFT4 (PCFT only) cultured in folate-/glycine-free RPMI1640 supplemented with 25 nM leucovorin. Additional results are shown for HCT116 (colon tumor cells (CTC)), IGROV1 (epithelial ovarian cancer (EOC) cells), H460 (non-small cell lung cancer (NSCLC) cells), MIAPaCa-2 (pancreatic cancer (PaC) cells), and HPAC (PaC).
(§2) For proliferation assays of the HCT116, H460, and MIA PaCa2 tumor cell lines, the cells were plated in 96-well plates in an identical manner to the CHO experiments, except that the maximal drug concentration was increased to 10 µM. Glycine/nucleoside protection experiments in CHO and tumor cell lines were performed in folate- and glycine-free RPMI 1640/10% dialyzed fetal bovine serum supplemented with 25 nM leucovorin without additions, or in the presence of adenosine (60 µM), thymidine (10 µM), glycine (130 µM) and/or 5-aminoimidazole-4-carboxamide (AICA) (320 µM). Growth of metabolite-treated cells was normalized to controls treated with metabolites and vehicle (i.e., DMSO) both singly and in combination. Treatments with all metabolites were performed in parallel on the same plate for a given drug.

H460 (NSCLC) = experiment: proliferation assay, H460 non-small cell lung cancer cells; settings: folate-/glycine-free RPMI1640 with 25 nM leucovorin, 96 h, read-out: IC50s (SE) H460 (NSCLC)
Protocol: as §1
Cell culture and proliferation/protection assays. The HCT116 cell lines including the serine hydroxymethyltransferase (SHMT) 1, SHMT2, and methylene THF dehydrogenase 2 (MTHFD2) knockout (KO) cells were previously described (47,53). The H460 cell line was obtained from the American Type Culture Collection (Manassas, VA), whereas the MIA PaCa-2 cells were provided by Dr. Yubin Ge (Karmanos Cancer Institute). Cell lines were verified by STR analysis by Genetica DNA Laboratories (Burlington, NC). MTXRIIOua^R2-4 (i.e. R2) Chinese hamster ovary (CHO) cells were generously provided by Dr. Wayne Flintoff (University of Western Ontario) (54). From this parental R2 cell line, human RFC and PCFT were individually transfected to generate the isogenic CHO cell lines designated PC43-10 (RFC) and R2/PCFT4 (PCFT) (55-57). Human tumor cell lines were cultured in folate-free RPMI supplemented with 10% dialyzed fetal bovine serum (Sigma-Aldrich), 1% penicillin/streptomycin solution, 2 mM L-glutamine, and 25 nM leucovorin in a humidified atmosphere at 37° C. in the presence of 5% CO2 and 95% air. The CHO cell lines were cultured in alpha-minimal essential medium (alpha-MEM) supplemented with 10% bovine calf serum, 1% penicillin/streptomycin solution, and 2 mM L-glutamine. Additionally, the transfected CHO cell lines (i.e. R2/PCFT4 and PC43-10) were maintained under continuous selection with 1 mg/ml of G418. […]

MIA PaCa-2 (PaC) = experiment: proliferation assay, MIA PaCa-2 pancreatic cancer cells; settings: folate-/glycine-free RPMI1640 with 25 nM leucovorin, 96 h, read-out: IC50s (SE) MIA PaCa-2 (PaC)
Protocol: as §1
Cell culture and proliferation/protection assays. The HCT116 cell lines including the serine hydroxymethyltransferase (SHMT) 1, SHMT2, and methylene THF dehydrogenase 2 (MTHFD2) knockout (KO) cells were previously described (47,53). The H460 cell line was obtained from the American Type Culture Collection (Manassas, VA), whereas the MIA PaCa-2 cells were provided by Dr. Yubin Ge (Karmanos Cancer Institute). Cell lines were verified by STR analysis by Genetica DNA Laboratories (Burlington, NC). MTXRIIOua^R2-4 (i.e. R2) Chinese hamster ovary (CHO) cells were generously provided by Dr. Wayne Flintoff (University of Western Ontario) (54). From this parental R2 cell line, human RFC and PCFT were individually transfected to generate the isogenic CHO cell lines designated PC43-10 (RFC) and R2/PCFT4 (PCFT) (55-57). Human tumor cell lines were cultured in folate-free RPMI supplemented with 10% dialyzed fetal bovine serum (Sigma-Aldrich), 1% penicillin/streptomycin solution, 2 mM L-glutamine, and 25 nM leucovorin in a humidified atmosphere at 37° C. in the presence of 5% CO2 and 95% air. The CHO cell lines were cultured in alpha-minimal essential medium (alpha-MEM) supplemented with 10% bovine calf serum, 1% penicillin/streptomycin solution, and 2 mM L-glutamine. Additionally, the transfected CHO cell lines (i.e. R2/PCFT4 and PC43-10) were maintained under continuous selection with 1 mg/ml of G418.
as §2

HCT116 cells = experiment: targeted metabolomics with [2,3,3-2H]serine tracer, HCT116 cells; settings: 10 µM drug; for increase of total serine: HCT116 WT cells, relative to WT controls; for M+1 serine: WT HCT116 cells
Text: Identification of the mitochondrial enzyme target for AGF291, AGF320, and AGF347 by targeted metabolomics. […] The cells were processed for LC-MS analyses of total serine, and of M+3, M+2, M+1, and M+0 (unlabeled) serine (where M+n represents species with n deuterium atoms). The results with the drug-treated cells were compared to those for untreated cells. For WT HCT116 cells, the results were compared to those for SHMT2 KO, MTHFD2 KO, and SHMT1 KO cells (KO of SHMT2, MTHFD2, and SHMT1, respectively (20)). For H460 cells, controls included non-targeted control (NTC) and SHMT2 shRNA knockdown (KD) cells.
Targeted Metabolomics. Targeted metabolomics were performed essentially as previously described (47, 53). Briefly, cells (H460, HCT116, MIA PaCa-2) (1 million cells /dish for vehicle-treated samples, 1.5 million cells/dish for drug-treated samples) were seeded in triplicate 60 mm dishes in 5 ml of folate-free RPMI (contains glycine and unlabeled serine) supplemented with 10% dialyzed fetal bovine serum, 1% penicillin/streptomycin, 2 mM L-glutamine, and 25 nM leucovorin. Cells were allowed to adhere for 24 h. […] After 16 h, the cells were washed with PBS (3×), the media was replaced with folate- and serine-free culture media (containing glycine) supplemented with 10% dialyzed fetal bovine serine, 25 nM leucovorin, and [2,3,3-^2H]serine (250 µM), including 10 µM drug or DMSO vehicle. The cells were incubated for 24 h. All incubations were at 37° C. with 5% CO2. The media was aspirated, and cells were washed (3×) rapidly (< 30 s) with 5 mL ice-cold PBS; metabolism was quickly quenched with methanol:water (80:20) at -80° C. Cells were allowed to rock on dry ice for 10 min to cover the entire dish with 80:20 methanol:water (at -80° C.), then harvested by scraping and pipetting into 1.5 mL Eppendorf tubes. The tubes were centrifuged (4° C., 14000 RPM, 10 min) to fully extract metabolites into the methanol:water supernatant. The protein pellet was used for normalization. The supernatants were collected and analyzed by reversed-phase ion-pairing chromatography coupled with negative-mode electrospray-ionization high-resolution mass spectrometry on a stand-alone Orbitrap (ThermoFisher Exactive). Raw metabolite values were adjusted to correct for normal ion distributions and normalized to total proteins from the post-extraction pellet by solubilizing with 0.5 N NaOH and using the Folin-phenol protein method (13). Values below the limit of detection were assigned a value of 100 for normalization. Results for drug-treated and SHMT2 KD cells were normalized to vehicle-treated WT ± formate or NTC ± formate samples, as appropriate.

| pIC50 (IGROV1 (EOC); Homo sapiens, IGROV-1) | pIC50 (H460 (NSCLC); Homo sapiens, NCI-H460) | pIC50 (MIA PaCa-2 (PaC); Homo sapiens, MIA PaCa-2) | Compound | increase of total serine (HCT116 cells) | M+1 serine (HCT116 cells) | pIC50 (IGROV1 (EOC)) | pIC50 (H460 (NSCLC)) | pIC50 (MIA PaCa-2 (PaC)) |
| --- | --- | --- | --- | --- | --- | --- | --- | --- |
| 6.35 | 6.34 | 5.44 | Nc1nc2ccn(CCCc3ccc(C(=O)N[C@@H](CCC(=O)O)C(=O)O)cc3)c2c(=O)[nH]1 [AGF291] | ~ 10 fold | nearly complete loss |  |  |  |
|  |  |  | Nc1nc2ccn(CCCCCc3ccc(C(=O)N[C@@H](CCC(=O)O)C(=O)O)s3)c2c(=O)[nH]1 [AGF320] | ~ 10 fold | nearly complete loss | 6.40 | 6.24 | 5.64 |
|  |  |  | (2-amino-4-oxo-3,4-dihydro-5H-pyrrolo[3,2-d]pyrimidin-5-yl)butyl)-2-fluorobenzoyl)-L-glutamic acid [AGF347] | ~ 10 fold | nearly complete loss | 7.21 | 6.67 | 5.86 |

Reference: patent US20230091810A1, “FIRST-IN-CLASS OF SHMT2 AND MTHFD2 INHIBITORS AS ANTITUMOR AGENTS” (Duquesne University of the Holy Spirit, priority 2017, published 2023)
